{"source": "patent US10370355B2", "about": "“Tetrahydroisoquinoline derivatives” (UCB Biopharma SPRL, priority 2016, dated 2019)", "molecular_target": "T1, dopamine D1 receptor (Homo sapiens, UniProt P21728)", "T1 construct": "host or cells: LMtk (Ltk-) mouse fibroblast cells", "T1 sequence (P21728 whole entry)": "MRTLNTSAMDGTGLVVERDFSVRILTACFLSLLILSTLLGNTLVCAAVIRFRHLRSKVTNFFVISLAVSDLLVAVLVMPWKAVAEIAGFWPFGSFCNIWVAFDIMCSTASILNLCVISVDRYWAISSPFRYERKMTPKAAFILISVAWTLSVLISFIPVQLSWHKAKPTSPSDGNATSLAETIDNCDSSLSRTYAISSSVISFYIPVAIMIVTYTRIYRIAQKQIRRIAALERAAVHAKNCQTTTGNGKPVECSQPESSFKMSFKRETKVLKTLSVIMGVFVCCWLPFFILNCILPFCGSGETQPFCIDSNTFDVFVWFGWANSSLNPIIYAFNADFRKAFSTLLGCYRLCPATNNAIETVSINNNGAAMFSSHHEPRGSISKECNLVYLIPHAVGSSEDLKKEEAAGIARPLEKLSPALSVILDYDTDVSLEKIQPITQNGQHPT", "assay": "cAMP HTRF potentiation assay (presence of EC20 dopamine)", "type": "cell-based", "details": "potentiation of cAMP in presence of EC20 dopamine (1.1 nM); LMtk (Ltk-) mouse fibroblast cells expressing the dopamine D1 receptor", "source_text": "The present assay allows to measure respectively the effects of compounds of the Examples in the absence of dopamine (“activation assay”) and the effects of compounds of the Examples in the presence of dopamine (“potentiation assay”).\nThe potentiation assay measures the ability of compounds to increase the levels of cAMP produced by a low-threshold concentration of dopamine. The concentration of dopamine used ([EC20]) is designed to produce 20% stimulation compared to the maximal response (100%) seen with increasing the concentration of dopamine. To measure this potentiation we incubate increasing concentrations of the compound with the [EC2O] of dopamine and measure the potentiation as increases in cAMP production. The pEC50 of a compound is the −log 10 of the concentration of the compound which produces 50% of the potentiation of the cAMP levels and the Erel is the relative efficacy, defined as the maximal % potentiation produced by the compound compared to the maximal response produced by increasing concentrations of dopamine (Erel of 1=dopamine maximum response).\nCells were cultured at 37° C. in a humidified atmosphere of 5% CO2. Cells were grown in DMEM-F12+GlutaMAX™-I medium (GIBCO®, Invitrogen, Merelbeke, Belgium) containing 10% fetal bovine serum (BioWhittaker®, Lonza, Verviers, Belgium), 400 μg/mL Geneticin (GIBCO®), 100 IU/mL Penicillin and 100 IU/mL Streptomycin (Pen-Strep solution, BioWhittaker®).\nThe measurement of changes in intracellular cyclic adenosinemonophopshpate (cAMP) was determined using the HTRF cAMP dynamic assay kit from CisBio (Codolet, France). Using homogenous time-resolved fluoresence technology, the assay is based on competition between native cAMP produced by cells and cAMP labelled with the dye d2. The tracer binding is determined by an anti-cAMP antibody labeled with cryptate. The effects of the compound alone (agonism) was determined by performing the assay in the absence of dopamine, whilst the effect of the compound as a positive allosteric modulator (PAM) was determined in the presence of an EC20 concentration of dopamine. Cells (20,000 per well) are incubated in 384 plates for 1 hour at room temperature in a final volume of 20 μLHBSS (Lonza, with calcium, magnesium and HEPES buffer 20 mM, pH 7.4) containing: isobutyl methylxanthine (Sigma, 0.1 mM final), varying concentrations of test compound (typically […] to 10^−4.5M) in the presence and absence of dopamine (1.1 nM final). The reaction is then terminated and the cells lysed by adding the d2 detection reagent in lysis buffer (10 microL) and the cryptate reagent in lysis buffer (10 microl) according to manufacturer's instructions. This is then incubated for a further 60 min at room temperature and changes in HTRF fluorescent emission ratio determined according to manufacturer's instructions using an Envision plate reader (Perkin Elmer, Zaventem, Belgium) with laser excitation. All incubations were performed in duplicate and results were compared to a concentration-effect curve to dopamine. (10^−11M to 10^−6M).\nData was analyzed using Excel and PRISM (GraphPad Software) to obtain pEC50 and Erel using the 4-parameter logistic equation (DeLean et al, 1978) where Erel is the fitted maximal response of the test compound minus basal expressed as a percentage relative to that obtained with dopamine which was defined as 100%."}
{"smiles": "C[C@H]1c2cccc([C@H](O)C(F)F)c2CCN1C(=O)Cc1c(Cl)ccn2ncc(Cl)c12", "note": "[Example 30, 2-(3,5-dichloropyrazolo[1,5-a]pyridin-4-yl)-1-[(1S)-5-[(1S)-2,2-difluoro-1-hydroxy-ethyl]-1-methyl-3,4-dihydro-1H-isoquinolin-2-yl]ethanone]", "values": [{"measurement": "EC50", "result": "≤ 31.6", "unit": "nM"}]}
{"smiles": "C[C@H]1c2cccc([C@](C)(O)CF)c2CCN1C(=O)Cc1c(Cl)ccc2[nH]nc(Cl)c12", "note": "[Example 3, 2-(3,5-dichloro-1H-indazol-4-yl)-1-[(1S)-5-[(1S)-2-fluoro-1-hydroxy-1-methyl-ethyl]-1-methyl-3,4-dihydro-1H-isoquinolin-2-yl]ethanone]", "values": [{"measurement": "EC50", "result": "≤ 31.6", "unit": "nM"}]}
{"smiles": "C[C@H]1c2cccc(C(C)(O)C(F)F)c2CCN1C(=O)Cc1c(Cl)cnc2c1c(Cl)nn2C", "note": "(single isomer, unassigned) [Example 21]", "values": [{"measurement": "EC50", "result": "≤ 31.6", "unit": "nM"}]}
{"smiles": "C[C@H]1c2cccc(C(O)(CF)CF)c2CCN1C(=O)Cc1c(Cl)ccc2c1c(Cl)nn2C", "note": "[Example 28, 2-(3,5-dichloro-1-methyl-indazol-4-yl)-1-[(1S)-5-[2-fluoro-1-(fluoromethyl)-1-hydroxy-ethyl]-1-methyl-3,4-dihydro-1H-isoquinolin-2-yl]ethanone]", "values": [{"measurement": "EC50", "result": "≤ 31.6", "unit": "nM"}]}
{"smiles": "C[C@H]1c2cccc(C(O)(CF)CF)c2CCN1C(=O)Cc1c(Cl)cnc2[nH]nc(Cl)c12", "note": "[Example 18, 2-(3,5-dichloro-1H-pyrazolo[3,4-b]pyridin-4-yl)-1-[(1S)-5-[2-fluoro-1-(fluoromethyl)-1-hydroxy-ethyl]-1-methyl-3,4-dihydro-1H-isoquinolin-2-yl]ethanone]", "values": [{"measurement": "EC50", "result": "31.6 to 100", "unit": "nM"}]}
{"smiles": "C[C@H]1c2cccc([C@@](C)(O)CF)c2CCN1C(=O)Cc1c(Cl)ccc2c1c(Cl)nn2C", "note": "[Example 24, 2-(3,5-dichloro-1-methyl-indazol-4-yl)-1-[(1S)-5-[(1R)-2-fluoro-1-hydroxy-1-methyl-ethyl]-1-methyl-3,4-dihydro-1H-isoquinolin-2-yl]ethanone]", "values": [{"measurement": "EC50", "result": "31.6 to 100", "unit": "nM"}]}
{"smiles": "C[C@H]1c2cccc([C@@](C)(O)CF)c2CCN1C(=O)Cc1c(Cl)cnc2c1c(Cl)nn2C", "note": "[Example 19, 2-(3,5-dichloro-1-methyl-pyrazolo[3,4-b]pyridin-4-yl)-1-[(1S)-5-((1R)-2-fluoro-1-hydroxy-1-methyl-ethyl)-1-methyl-3,4-dihydro-1H-isoquinolin-2-yl]ethanone]", "values": [{"measurement": "EC50", "result": "31.6 to 100", "unit": "nM"}]}
{"smiles": "C[C@H]1c2cccc([C@@H](O)C(F)F)c2CCN1C(=O)Cc1c(Cl)ccc2[nH]nc(Cl)c12", "note": "[Example 4, 2-(3,5-dichloro-1H-indazol-4-yl)-1-[(1S)-5-[(1R)-2,2-difluoro-1-hydroxy-ethyl]-1-methyl-3,4-dihydro-1H-isoquinolin-2-yl]ethanone]", "values": [{"measurement": "EC50", "result": "≤ 31.6", "unit": "nM"}]}
{"smiles": "C[C@H]1c2cccc(C(C)(O)C(F)F)c2CCN1C(=O)Cc1c(Cl)ccc2[nH]nc(Cl)c12", "note": "(single isomer, unassigned) [Example 6]", "values": [{"measurement": "EC50", "result": "≤ 31.6", "unit": "nM"}]}
{"smiles": "C[C@H]1c2cccc(C(C)(O)C(F)F)c2CCN1C(=O)Cc1c(Cl)c(C2CC2)cn2ncc(Cl)c12", "note": "(single isomer, unassigned) [Example 31]", "values": [{"measurement": "EC50", "result": "31.6 to 100", "unit": "nM"}]}
{"smiles": "C[C@H]1c2cccc([C@@](C)(O)CF)c2CCN1C(=O)Cc1c(Cl)cnc2[nH]nc(Cl)c12", "note": "[Example 15, 2-(3,5-dichloro-1H-pyrazolo[3,4-b]pyridin-4-yl)-1-[(1S)-5-[(1R)-2-fluoro-1-hydroxy-1-methyl-ethyl]-1-methyl-3,4-dihydro-1H-isoquinolin-2-yl]ethanone]", "values": [{"measurement": "EC50", "result": "≤ 31.6", "unit": "nM"}]}
{"smiles": "C[C@H]1c2cccc([C@H](O)C(F)F)c2CCN1C(=O)Cc1c(Cl)ccc2onc(Cl)c12", "note": "[Example 1, 2-(3,5-dichloro-1,2-benzoxazol-4-yl)-1-[(1S)-5-[(1S)-2,2-difluoro-1-hydroxy-ethyl]-1-methyl-3,4-dihydro-1H-isoquinolin-2-yl]ethanone]", "values": [{"measurement": "EC50", "result": "≤ 31.6", "unit": "nM"}]}
{"smiles": "C[C@H]1c2cccc([C@@H](O)C(F)F)c2CCN1C(=O)Cc1c(Cl)ccc2c1c(Cl)nn2C", "note": "[Example 10, 2-(3,5-dichloro-1-methyl-indazol-4-yl)-1-[(1S)-5-[(1R)-2,2-difluoro-1-hydroxy-ethyl]-1-methyl-3,4-dihydro-1H-isoquinolin-2-yl]ethanone]", "values": [{"measurement": "EC50", "result": "31.6 to 100", "unit": "nM"}]}
{"smiles": "C[C@H]1c2cccc([C@H](O)C(F)F)c2CCN1C(=O)Cc1c(Cl)ccc2c1c(Cl)nn2C", "note": "[Example 11, 2-(3,5-dichloro-1-methyl-indazol-4-yl)-1-[(1S)-5-[(1S)-2,2-difluoro-1-hydroxy-ethyl]-1-methyl-3,4-dihydro-1H-isoquinolin-2-yl]ethanone]", "values": [{"measurement": "EC50", "result": "31.6 to 100", "unit": "nM"}]}
{"smiles": "C[C@H]1c2cccc([C@H](O)C(F)F)c2CCN1C(=O)Cc1c(Cl)ccc2[nH]nc(Cl)c12", "note": "[Example 5, 2-(3,5-dichloro-1H-indazol-4-yl)-1-[(1S)-5-[(1S)-2,2-difluoro-1-hydroxy-ethyl]-1-methyl-3,4-dihydro-1H-isoquinolin-2-yl]ethanone]", "values": [{"measurement": "EC50", "result": "≤ 31.6", "unit": "nM"}]}
{"smiles": "C[C@H]1c2cccc([C@](C)(O)CF)c2CCN1C(=O)Cc1c(Cl)cnc2[nH]nc(Cl)c12", "note": "[Example 14, 2-(3,5-dichloro-1H-pyrazolo[3,4-b]pyridin-4-yl)-1-[(1S)-5-[(1S)-2-fluoro-1-hydroxy-1-methyl-ethyl]-1-methyl-3,4-dihydro-1H-isoquinolin-2-yl]ethanone]", "values": [{"measurement": "EC50", "result": "≤ 31.6", "unit": "nM"}]}
{"smiles": "C[C@H]1c2cccc([C@@](C)(O)CF)c2CCN1C(=O)Cc1c(Cl)ccc2[nH]nc(Cl)c12", "note": "[Example 2, 2-(3,5-dichloro-1H-indazol-4-yl)-1-[(1S)-5-[(1R)-2-fluoro-1-hydroxy-1-methyl-ethyl]-1-methyl-3,4-dihydro-1H-isoquinolin-2-yl]ethanone]", "values": [{"measurement": "EC50", "result": "≤ 31.6", "unit": "nM"}]}
{"smiles": "C[C@H]1c2cccc([C@@H](O)C(F)F)c2CCN1C(=O)Cc1c(Cl)ccc2nn(C)c(Cl)c12", "note": "[Example 8, 2-(3,5-dichloro-2-methyl-indazol-4-yl)-1-[(1S)-5-[(1R)-2,2-difluoro-1-hydroxy-ethyl]-1-methyl-3,4-dihydro-1H-isoquinolin-2-yl]ethanone]", "values": [{"measurement": "EC50", "result": "≤ 31.6", "unit": "nM"}]}
{"smiles": "C[C@H]1c2cccc(C(O)(CF)CF)c2CCN1C(=O)Cc1c(Cl)cnc2c1c(Cl)nn2C", "note": "[Example 23, 2-(3,5-dichloro-1-methyl-pyrazolo[3,4-b]pyridin-4-yl)-1-[(1S)-5-[2-fluoro-1-(fluoromethyl)-1-hydroxy-ethyl]-1-methyl-3,4-dihydro-1H-isoquinolin-2-yl]ethanone]", "values": [{"measurement": "EC50", "result": "31.6 to 100", "unit": "nM"}]}
{"smiles": "C[C@H]1c2cccc([C@](C)(O)CF)c2CCN1C(=O)Cc1c(Cl)cnc2c1c(Cl)nn2C", "note": "[Example 20, 2-(3,5-dichloro-1-methyl-pyrazolo[3,4-b]pyridin-4-yl)-1-[(1S)-5-((1S)-2-fluoro-1-hydroxy-1-methyl-ethyl)-1-methyl-3,4-dihydro-1H-isoquinolin-2-yl]ethanone]", "values": [{"measurement": "EC50", "result": "≤ 31.6", "unit": "nM"}]}
{"smiles": "C[C@H]1c2cccc(C(C)(O)C(F)F)c2CCN1C(=O)Cc1c(Cl)c(C#N)cn2ncc(Cl)c12", "note": "(single isomer, unassigned) [Example 32]", "values": [{"measurement": "EC50", "result": "≤ 31.6", "unit": "nM"}]}
{"smiles": "C[C@H]1c2cccc([C@H](O)C(F)F)c2CCN1C(=O)Cc1c(Cl)ccc2nn(C)c(Cl)c12", "note": "[Example 9, 2-(3,5-dichloro-2-methyl-indazol-4-yl)-1-[(1S)-5-[(1S)-2,2-difluoro-1-hydroxy-ethyl]-1-methyl-3,4-dihydro-1H-isoquinolin-2-yl]ethanone]", "values": [{"measurement": "EC50", "result": "31.6 to 100", "unit": "nM"}]}
{"smiles": "C[C@H]1c2cccc(C(C)(O)C(F)F)c2CCN1C(=O)Cc1c(Cl)cnc2[nH]nc(Cl)c12", "note": "(single isomer, unassigned) [Example 16]", "values": [{"measurement": "EC50", "result": "≤ 31.6", "unit": "nM"}]}
{"smiles": "C[C@H]1c2cccc([C@](C)(O)CF)c2CCN1C(=O)Cc1c(Cl)ccc2c1c(Cl)nn2C", "note": "[Example 25, 2-(3,5-dichloro-1-methyl-indazol-4-yl)-1-[(1S)-5-[(1S)-2-fluoro-1-hydroxy-1-methyl-ethyl]-1-methyl-3,4-dihydro-1H-isoquinolin-2-yl]ethanone]", "values": [{"measurement": "EC50", "result": "31.6 to 100", "unit": "nM"}]}
{"smiles": "C[C@H]1c2cccc([C@](C)(O)CF)c2CCN1C(=O)Cc1c(Cl)ccn2ncc(Cl)c12", "note": "[Example 29, 2-(3,5-dichloropyrazolo[1,5-a]pyridin-4-yl)-1-[(1S)-5-[(1S)-2-fluoro-1-hydroxy-1-methyl-ethyl]-1-methyl-3,4-dihydro-1H-isoquinolin-2-yl]ethanone]", "values": [{"measurement": "EC50", "result": "≤ 31.6", "unit": "nM"}]}
